Measured values taken from PubChem BioAssay (NCI).
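At the GI50, growth is halved. Definition used: TGI = concentration required for complete inhibition of growth.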

Key:
Experiment in all cases: growth of human tumour cells (NCI), 384-well format
NCI-H460 NSCLC = test system: NCI-H460 NSCLC
OVCAR-4 ovarian = test system: OVCAR-4 ovarian
HOP-92 NSCLC = test system: HOP-92 NSCLC
NCI/ADR-RES ovarian = test system: NCI/ADR-RES ovarian
UACC-62 melanoma = test system: UACC-62 melanoma
M14 melanoma = test system: M14 melanoma
HCT-116 colon = test system: HCT-116 colon
BT-549 breast = test system: BT-549 breast
SW-620 colon = test system: SW-620 colon
HS 578T breast = test system: HS 578T breast
NCI-H23 lung = test system: NCI-H23 lung
MOLT-4 leukemia = test system: MOLT-4 leukemia
OVCAR-5 ovarian = test system: OVCAR-5 ovarian
A498 renal = test system: A498 renal
HL-60(TB) leukemia = test system: HL-60(TB) leukemia
SK-OV-3 ovarian = test system: SK-OV-3 ovarian
SF-268 CNS = test system: SF-268 CNS
RXF 393 renal = test system: RXF 393 renal
T-47D breast = test system: T-47D breast
UACC-257 melanoma = test system: UACC-257 melanoma
MDA-MB-468 breast = test system: MDA-MB-468 breast
MALME-3M melanoma = test system: MALME-3M melanoma
SK-MEL-28 melanoma = test system: SK-MEL-28 melanoma
EKVX NSCLC = test system: EKVX NSCLC
KM12 colon = test system: KM12 colon
SF-539 CNS = test system: SF-539 CNS
SF-295 CNS = test system: SF-295 CNS
SN12C renal = test system: SN12C renal
MDA-MB-435 melanoma = test system: MDA-MB-435 melanoma
TK-10 renal = test system: TK-10 renal
OVCAR-8 ovarian = test system: OVCAR-8 ovarian
786-0 renal = test system: 786-0 renal
PC-3 prostate = test system: PC-3 prostate
COLO 205 colon = test system: COLO 205 colon
DU-145 prostate = test system: DU-145 prostate
NCI-H226 lung = test system: NCI-H226 lung
SNB-19 CNS = test system: SNB-19 CNS
A549 NSCLC = test system: A549 NSCLC
NCI-H522 lung = test system: NCI-H522 lung
MDA-MB-231 breast = test system: MDA-MB-231 breast
SR leukemia = test system: SR leukemia
SNB-75 CNS = test system: SNB-75 CNS
RPMI-8226 leukemia = test system: RPMI-8226 leukemia
LOX IMVI melanoma = test system: LOX IMVI melanoma
HCT-15 colon = test system: HCT-15 colon
UO-31 renal = test system: UO-31 renal
CAKI-1 renal = test system: CAKI-1 renal
SK-MEL-5 melanoma = test system: SK-MEL-5 melanoma
IGROV1 ovarian = test system: IGROV1 ovarian
OVCAR-3 ovarian = test system: OVCAR-3 ovarian
MCF7 breast = test system: MCF7 breast
U251 glioblastoma = test system: U251 glioblastoma
HOP-62 NSCLC = test system: HOP-62 NSCLC
ACHN renal = test system: ACHN renal

## C=CC(=O)N1CCCC(n2nc(-c3ccc(Oc4ccccc4)cc3)c3c(N)ncnc32)C1 (stereo not drawn)
NCI-H460 NSCLC
  GI50: 16.5 µM
  TGI: 30.1 µM
OVCAR-4 ovarian
  GI50: 11.2 µM
  TGI: 23.3 µM
HOP-92 NSCLC
  GI50: 13.6 µM
  TGI: 26.5 µM
NCI/ADR-RES ovarian
  GI50: 11.3 µM
  TGI: 23.5 µM
UACC-62 melanoma
  GI50: 5.71 µM
  TGI: 18.7 µM
M14 melanoma
  GI50: 11.1 µM
  TGI: 23.2 µM
HCT-116 colon
  GI50: 15.3 µM
  TGI: 28.8 µM
BT-549 breast
  GI50: 3.59 µM
  TGI: 13.3 µM
SW-620 colon
  GI50: 18.4 µM
  TGI: 32.5 µM
HS 578T breast
  GI50: 6.88 µM
  TGI: 19.5 µM
NCI-H23 lung
  GI50: 16.3 µM
  TGI: 29.9 µM
MOLT-4 leukemia
  GI50: 1.32 µM
  TGI: 5.02 µM
OVCAR-5 ovarian
  GI50: 18.7 µM
  TGI: 32.8 µM
A498 renal
  GI50: 11.5 µM
  TGI: 23.7 µM
HL-60(TB) leukemia
  GI50: 15.9 µM
  TGI: 29.4 µM
SK-OV-3 ovarian
  GI50: 2.87 µM
  TGI: 20.5 µM
SF-268 CNS
  GI50: 6.51 µM
  TGI: 20 µM
RXF 393 renal
  GI50: 1.18 µM
  TGI: 6.31 µM
T-47D breast
  GI50: 0.0148 µM
  TGI: 17.7 µM
UACC-257 melanoma
  GI50: 10.6 µM
  TGI: 22.5 µM
MDA-MB-468 breast
  GI50: 0.0226 µM
  TGI: 0.239 µM
MALME-3M melanoma
  GI50: 13.5 µM
  TGI: 26.4 µM
SK-MEL-28 melanoma
  GI50: 17.3 µM
  TGI: 31.2 µM
EKVX NSCLC
  GI50: 0.316 µM
  TGI: 16.7 µM
KM12 colon
  GI50: 14.5 µM
  TGI: 27.7 µM
SF-539 CNS
  GI50: 11.3 µM
  TGI: 23.4 µM
SF-295 CNS
  GI50: 14.7 µM
  TGI: 27.9 µM
SN12C renal
  GI50: 2.71 µM
  TGI: 16.5 µM
MDA-MB-435 melanoma
  GI50: 17.2 µM
  TGI: 31.1 µM
TK-10 renal
  GI50: 0.479 µM
  TGI: 12.1 µM
OVCAR-8 ovarian
  GI50: 12.1 µM
  TGI: 24.6 µM
786-0 renal
  GI50: 3.78 µM
  TGI: 17.4 µM
PC-3 prostate
  GI50: 14.8 µM
  TGI: 28.1 µM
COLO 205 colon
  GI50: 18.9 µM
  TGI: 33 µM
DU-145 prostate
  GI50: 4.16 µM
  TGI: 19.2 µM
NCI-H226 lung
  GI50: 6.21 µM
  TGI: 19.3 µM
SNB-19 CNS
  GI50: 15 µM
  TGI: 28.4 µM
A549 NSCLC
  GI50: 12.1 µM
  TGI: 24.5 µM
NCI-H522 lung
  GI50: 0.0178 µM
  TGI: 0.0859 µM
MDA-MB-231 breast
  GI50: 16.2 µM
  TGI: 29.8 µM
SR leukemia
  GI50: 5.35 µM
  TGI: 18.4 µM
SNB-75 CNS
  GI50: 5.51 µM
  TGI: 14 µM
RPMI-8226 leukemia
  GI50: 10.5 µM
  TGI: 22.4 µM
LOX IMVI melanoma
  GI50: 4.43 µM
  TGI: 19.3 µM
HCT-15 colon
  GI50: 12.6 µM
  TGI: 25.3 µM
UO-31 renal
  GI50: 6.11 µM
  TGI: 19.9 µM
CAKI-1 renal
  GI50: 6.76 µM
  TGI: 19.6 µM
SK-MEL-5 melanoma
  GI50: 10.9 µM
  TGI: 23 µM
IGROV1 ovarian
  GI50: 0.114 µM
  TGI: 5.9 µM
OVCAR-3 ovarian
  GI50: 2.05 µM
  TGI: 15.5 µM
MCF7 breast
  GI50: 10.3 µM
  TGI: 22.1 µM
U251 glioblastoma
  GI50: 14 µM
  TGI: 27.1 µM
HOP-62 NSCLC
  GI50: 15.2 µM
  TGI: 28.6 µM
ACHN renal
  GI50: 0.655 µM
  TGI: 17.3 µM
